Test results as given in ChEMBL document CHEMBL1287753, “Synthesis of all-cis 2,5-imino-2,5-dideoxy-fucitol and its evaluation as a potent fucosidase and galactosidase inhibitor” (Bioorg Med Chem Lett, 2010).

Key:
[1] = Inhibition of beta-mannosidase
[2] = Inhibition of beta-glucosidase
[3] = Inhibition of alpha-fucosidase
[4] = Inhibition of beta-galactosidase
[5] = Inhibition of alpha-glucosidase
[6] = Inhibition of alpha-galactosidase
[7] = Inhibition of alpha-mannosidase

C[C@H]1N[C@@H](CO)[C@@H](O)[C@H]1O (racemic)
IC50 [1]: > 1000 µM
IC50 [2]: > 1 µM
Ki ([3]; read-out: Ki): 0.015 µM
Ki [4]: 53 µM
IC50 [5]: > 100 µM
Ki [6]: 3 µM
IC50 [7]: > 1000 µM

C[C@H]1N[C@H](CO)[C@@H](O)[C@H]1O
IC50 [2]: 100 µM
Ki ([3]; read-out: Ki): 1000 µM
Ki [5]: Not Active
IC50 [6]: 2000 µM
Ki [7]: Not Active

C[C@@H]1NC[C@H](O)[C@@H]1O
Ki ([3]; read-out: Ki): 0.05 µM

C[C@@H]1N[C@@H](CCO)[C@H](O)[C@@H]1O
IC50 [1]: > 1000 µM
IC50 [2]: > 1000 µM
Ki ([3]; read-out: Ki): 0.008 µM
IC50 [4]: > 1000 µM
IC50 [5]: > 100 µM
IC50 [6]: > 1000 µM
IC50 [7]: > 1000 µM

C[C@@H]1N[C@H](CO)[C@H](O)[C@@H]1O
Ki ([3]; read-out: Ki): 0.0049 µM

C[C@@H]1N[C@@H](CO)[C@H](O)[C@@H]1O
Ki ([3]; read-out: Ki): 0.08 µM

OC[C@H]1NC[C@@H](O)[C@H]1O
IC50 [2]: 350 µM
Ki [3]: Not Active
IC50 [4]: 140 µM
Ki [5]: Not Active
IC50 [6]: 0.2 µM
IC50 [7]: 14 µM

C[C@H]1N[C@H](CO)[C@H](O)[C@@H]1O
IC50 [2]: 1200 µM
Ki ([3]; read-out: Ki): 9 µM
Ki [5]: Not Active
Ki [6]: 5 µM
Ki ([7]; read-out: Ki): 53 µM
